The subject of data set [1] is MCF-7 breast carcinoma cell line. In words: MTT cytotoxic activity against MCF-7 breast carcinoma cell line. As to conditions: Homo sapiens, MCF7, read-out: IC50 (μM) MCF-7.
Another data set concerns the target T1, EGFR kinase (Homo sapiens, UniProt P00533).
T1 construct: purchased BPS Bioscience 40321
In words: EGFR-TK inhibition assay (BPS Bioscience EGFR Kinase Assay Kit). It is filed as biochemical. The source says:
S4.2.1. Cytotoxic activity evaluation
adenocarcinoma (MCF-7) cell line.
Dimethyl sulphoxide (DMSO) in
S4.2.2. EGFR kinase Assay

The test system of data set [2] is MCF-7 cells. In words: Cell cycle analysis by flow cytometry (PI staining). It is filed as cell-based. Here is the method: It is well documented that most tyrosine kinase inhibitors exert strong antiproliferative and pro-apoptotic effect.[38] […] These findings are in agreement with the previously observed for EGFR-TK structural analogues.[39]
S4.2.3. Cell cycle analysis of compound 6h
Cell cycle analysis in MCF-7 cells was investigated using fluorescent […] (BioVision EZCellTM Cell Cycle Analysis Kit Catalog #K920) by flow cytometry assay. MCF-7 cells at a density of 2 × 10^5 per well were harvested and washed twice in PBS. After that, the cells were incubated at 37 °C and 5% CO2. The medium was incubated with the tested compound 6h at the IC50 (µM) for 48 h, washed twice in PBS, fixed with 70% ethanol, rinsed again with PBS. Afterward, medium was stained with DNA fluorochrome PI for 15 min at 37 °C. The samples were immediately analyzed using Facs Calibur flow cytometer (Becton and Dickinson, Heidelberg, […]
S4.2.4. Apoptosis assay for compound 6h
(1 picture or pasted object on this page, not shown here)

In the next data set the test system is p53. In words: Apoptotic marker determination by qRT-PCR: p53. The class given is cell-based. Particulars: MCF-7 cells, 2.71 μM, 48 h, compared to DMSO controls. The source says:
(§1) p53 is a transcription factor that both initiates and suppresses a number of target genes involved in cancer progression and apoptosis.[40] The p53 protein level increase during cellular stress and cytotoxic drugs by increased transcription or increased stability due to post-translational modifications such as phosphorylation.[41] The ability of p53 to modulate caspase activation and apoptosis induction is critical to its role as tumor suppressor.[42] Coordinately, p53 activation promotes the loss of mitochondrial potential ultimately leading to caspase activation and apoptosis.[43] […] An increase in the level of p53 was detected in the tested cell line compared with controls at 48 h. The increased expression of p53 level was coupled with increase in the level of caspase 9 in compound 6h-treated MCF-7 cell line at 48 h. The levels of p53 and caspase 9 were increased by 7.4- and 8.7-fold, respectively compared with controls (Fig. 5).
(§2) MCF-7 cells were treated with 2.71 μM of tested hybrid for 48 h before qRT-PCR measurement and compared to untreated controls. (A) p53 level; (B) caspase 9 level.

For another data set, the system named is caspase 9. In words: Apoptotic marker determination by qRT-PCR: caspase 9. It is filed as cell-based. Particulars: MCF-7 cells, 2.71 μM, 48 h, compared to DMSO controls.
Description: as §1, §2

The test system of data set [3] is MCF-7 cells. In words: Annexin V FITC/PI apoptosis staining assay by flow cytometry. It is filed as cell-based. As to conditions: 2.71 μM, 48 h. The source says: In addition, an increase in the primary apoptotic cells was also observed. It is noteworthy that, the percentage of primary apoptosis was rise from 0.39 to 9.55% as compared to DMSO control (Fig. 4). According to these findings, it could be concluded that this set of compounds could halt MCF-7 cells in G1 phase and provoke apoptotic cellular death.
Apoptosis in MCF-7 cells was investigated using fluorescent Annexin V-FITC/ PI detection kit (BioVision Annexin V-FITC Apoptosis Detection Kit, Catalog #: K101) by flow cytometry assay. MCF-7 cells at a density of 2 × 10^5 per well were treated with compound 6h at the IC50 (µM) for 48 h, then the cells were harvested and stained with Annexin V-FITC/ PI dye for 15 min in the dark at 37 °C. The samples were immediately analyzed using FACS Calibur flow cytometer (Becton and Dickinson, […]

T1 sequence (P00533 25-1210): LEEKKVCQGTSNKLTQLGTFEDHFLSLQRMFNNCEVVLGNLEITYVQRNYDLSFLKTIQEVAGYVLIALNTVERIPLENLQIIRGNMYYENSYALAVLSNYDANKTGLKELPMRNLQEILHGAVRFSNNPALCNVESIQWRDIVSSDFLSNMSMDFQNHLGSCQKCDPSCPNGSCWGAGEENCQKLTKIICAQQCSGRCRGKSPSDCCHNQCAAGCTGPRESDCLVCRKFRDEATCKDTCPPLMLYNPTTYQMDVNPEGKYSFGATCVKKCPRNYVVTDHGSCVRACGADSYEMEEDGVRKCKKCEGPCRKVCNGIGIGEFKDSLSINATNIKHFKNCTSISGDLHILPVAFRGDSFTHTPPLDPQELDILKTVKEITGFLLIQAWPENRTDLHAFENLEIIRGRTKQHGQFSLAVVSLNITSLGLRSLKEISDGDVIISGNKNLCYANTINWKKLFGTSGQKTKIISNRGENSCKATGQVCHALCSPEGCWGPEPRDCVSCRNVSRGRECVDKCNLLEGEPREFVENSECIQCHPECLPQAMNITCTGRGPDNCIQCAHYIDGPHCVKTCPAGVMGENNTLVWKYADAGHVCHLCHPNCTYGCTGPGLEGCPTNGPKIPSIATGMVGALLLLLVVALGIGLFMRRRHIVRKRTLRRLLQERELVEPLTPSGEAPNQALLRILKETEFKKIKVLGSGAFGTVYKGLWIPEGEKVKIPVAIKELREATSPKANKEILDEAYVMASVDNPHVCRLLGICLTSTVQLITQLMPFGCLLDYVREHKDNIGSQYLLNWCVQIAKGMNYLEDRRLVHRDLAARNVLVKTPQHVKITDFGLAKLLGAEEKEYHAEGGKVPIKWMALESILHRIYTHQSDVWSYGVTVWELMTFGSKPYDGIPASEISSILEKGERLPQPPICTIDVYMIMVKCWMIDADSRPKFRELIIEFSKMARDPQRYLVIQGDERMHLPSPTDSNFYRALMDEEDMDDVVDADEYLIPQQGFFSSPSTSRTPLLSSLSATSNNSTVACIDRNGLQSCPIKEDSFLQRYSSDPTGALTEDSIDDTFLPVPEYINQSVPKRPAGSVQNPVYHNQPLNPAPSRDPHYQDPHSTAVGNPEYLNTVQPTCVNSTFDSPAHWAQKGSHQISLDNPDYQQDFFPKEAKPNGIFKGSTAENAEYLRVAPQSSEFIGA

Compound `COc1ccc(C(=O)N/C(=C\c2ccco2)C(=O)NNC(=O)c2cc(-c3ccc(Br)cc3)nc3ccccc23)cc1` [Compound 5, (Z)-N-(3-(2-(2-(4-Bromophenyl)quinoline-4-carbonyl)hydrazinyl)-1-(furan-2-yl)-3-oxoprop-1-en-2-yl)-4-methoxybenzamide] came in with a melting point of 257 to 259 °C. Further, in data set [1], the IC50 came out at 12.5 ± 0.4 µM.
In turn, `COc1ccc(C(=O)N/C(=C\c2ccc(C)cc2)C(=O)NNC(=O)c2cc(-c3ccc(Br)cc3)nc3ccccc23)cc1` [Compound 6a, (Z)-N-(3-(2-(2-(4-Bromophenyl)quinoline-4-carbonyl)hydrazinyl)-3-oxo-1-p-tolylprop-1-en-2-yl)-4-methoxybenzamide] yielded a melting point of 246 to 248 °C. Besides, the IC50 in data set [1] was 3.39 ± 0.11 µM. Also, at EGFR kinase, the 50% inhibitory concentration (IC50) turned out to be 0.31 µM.
Consider `COc1ccc(C(=O)N/C(=C\c2ccc(OC)c(OC)c2)C(=O)NNC(=O)c2cc(-c3ccc(Br)cc3)nc3ccccc23)cc1` [Compound 6b, (Z)-N-(3-(2-(2-(4-Bromophenyl)quinoline-4-carbonyl)hydrazinyl)-1-(3,4-dimethoxyphenyl)-3-oxoprop-1-en-2-yl)-4-methoxybenzamide], for which the melting point was 235 to 237 °C. Moreover, the concentration for half-maximal inhibition (IC50) in data set [1] was 5.94 ± 0.17 µM.
Compound `COc1ccc(C(=O)N/C(=C\c2ccc(OC)c(OC)c2OC)C(=O)NNC(=O)c2cc(-c3ccc(Br)cc3)nc3ccccc23)cc1` [Compound 6c, (Z)-N-(3-(2-(2-(4-Bromophenyl)quinoline-4-carbonyl)hydrazinyl)-3-oxo-1-(2,3,4-trimethoxyphenyl)prop-1-en-2-yl)-4-methoxybenzamide] gave a melting point of 192 to 194 °C. For the same compound, the IC50 in data set [1] is 51.8 ± 1.54 µM.
The corresponding values for `COc1ccc(C(=O)N/C(=C\c2cc(OC)c(OC)c(OC)c2)C(=O)NNC(=O)c2cc(-c3ccc(Br)cc3)nc3ccccc23)cc1` [Compound 6d, (Z)-N-(3-(2-(2-(4-Bromophenyl)quinoline-4-carbonyl)hydrazinyl)-3-oxo-1-(3,4,5-trimethoxyphenyl)prop-1-en-2-yl)-4-methoxybenzamide] are 208 to 210 °C and 17.1 ± 0.55 µM.
Turning to `COc1ccc(C(=O)N/C(=C\c2ccc(F)cc2)C(=O)NNC(=O)c2cc(-c3ccc(Br)cc3)nc3ccccc23)cc1` [Compound 6e, (Z)-N-(3-(2-(2-(4-Bromophenyl)quinoline-4-carbonyl)hydrazinyl)-1-(4-fluorophenyl)-3-oxoprop-1-en-2-yl)-4-methoxybenzamide], the melting point was in the range of 258 to 260 °C. Also, the half-maximal inhibitory concentration (IC50) in data set [1] was determined as 21.2 ± 0.68 µM.
For `COc1ccc(C(=O)N/C(=C\c2ccc(Cl)cc2)C(=O)NNC(=O)c2cc(-c3ccc(Br)cc3)nc3ccccc23)cc1` [Compound 6f, (Z)-N-(3-(2-(2-(4-Bromophenyl)quinoline-4-carbonyl)hydrazinyl)-1-(4-chlorophenyl)-3-oxoprop-1-en-2-yl)-4-methoxybenzamide], the melting point lay in the range of 276 to 278 °C. Besides, the IC50 in data set [1] came out at 26 ± 0.84 µM.
The corresponding values for `COc1ccc(C(=O)N/C(=C\c2ccc(Br)cc2)C(=O)NNC(=O)c2cc(-c3ccc(Br)cc3)nc3ccccc23)cc1` [Compound 6g, (Z)-N-(1-(4-Bromophenyl)-3-(2-(2-(4-bromophenyl)quinoline-4-carbonyl)hydrazinyl)-3-oxoprop-1-en-2-yl)-4-methoxybenzamide] are 261 to 263 °C and 39.1 ± 1.26 µM.
As to `COc1ccc(C(=O)N/C(=C\c2ccc([N+](=O)[O-])cc2)C(=O)NNC(=O)c2cc(-c3ccc(Br)cc3)nc3ccccc23)cc1` [Compound 6h, (Z)-N-(3-(2-(2-(4-Bromophenyl)quinoline-4-carbonyl)hydrazinyl)-1-(4-nitrophenyl)-3-oxoprop-1-en-2-yl)-4-methoxybenzamide], the figures for the concentration for half-maximal inhibition (IC50) (in data set [1]; on EGFR kinase) were 2.71 ± 0.09 µM and 0.22 µM, respectively. Also, the “G1 phase arrest, fold more than DMSO controls” value with MCF-7 cells [2] (2.71 μM) is recorded as 1.3 fold. Further, the “percentage of cells in G2/M phase” value in the data set with MCF-7 cells [2] (2.71 μM (IC50) of compound, 48 h, DMSO control 15.56%) turned out to be 9.37%. Also, the “percentage of cells in S phase” value with MCF-7 cells [2] (2.71 μM (IC50) of compound, 48 h, DMSO control 37.51%) was 28.48%. The “proportion of cells in G1 phase” value with MCF-7 cells [2] (2.71 μM (IC50) of compound, 48 h, DMSO control 46.93%) amounted to 62.15%. The “increase of p53 level vs controls” value in the data set on p53 was determined as 7.4 fold. For the same compound, the “increase of caspase 9 level vs controls” value in the data set with caspase 9 worked out at 8.7 fold. Besides, the “percentage of secondary cellular apoptosis” value in the data set on MCF-7 cells [3] (DMSO control 0.11%) amounted to 17.78%. Moreover, the “percentage of primary apoptosis” value with MCF-7 cells [3] (DMSO control 0.39%) turned out to be 9.55%.
`COc1ccc(C(=O)N/C(=C\c2cc(Br)c(OC(C)=O)c(Br)c2)C(=O)NNC(=O)c2cc(-c3ccc(Br)cc3)nc3ccccc23)cc1` [Compound 6i, (Z)-2,6-Dibromo-4-(3-(2-(2-(4-bromophenyl)quinoline-4-carbonyl)hydrazinyl)-2-(4-methoxybenzamido)-3-oxoprop-1-enyl)phenyl acetate] yielded a melting point of 217 to 219 °C. Moreover, the IC50 in data set [1] was 8.77 ± 0.28 µM.
In the case of `COc1cccc2c1C(=O)c1c(O)c3c(c(O)c1C2=O)C[C@@](O)(C(=O)CO)C[C@@H]3O[C@H]1C[C@H](N)[C@H](O)[C@H](C)O1` [Dox, Doxorubicin, reference compound], the 50% inhibitory concentration (IC50) in data set [1] amounted to 6.18 ± 0.2 µM.

(Values after publication PMC11273260.)
